Measurements reported in patent US9827219B2, “Compositions and methods for lowering levels of high-sensitivity C-reactive protein (HS-CRP) in a subject” (priority 2012, dated 2017).

What was measured:
Type in all cases: in vivo, human
[1] = test system: TG; experiment: TG in patients with diabetes mellitus-2 (Example 2); details: 4 g/day, 12 weeks, on statin
Text: Parameters (a)-(y) can be measured in accordance with any clinically acceptable methodology. For example, triglycerides, total cholesterol, HDL-C and fasting blood sugar can be sample from serum and analyzed using standard photometry techniques. VLDL-TG, LDL-C and VLDL-C can be calculated or determined using serum lipoprotein fractionation by preparative ultracentrifugation and subsequent quantitative analysis by refractometry or by analytic ultracentrifugal methodology. Apo A1, Apo B and hsCRP can be determined from serum using standard nephelometry techniques. Lipoprotein (a) can be determined from serum using standard turbidimetric immunoassay techniques. LDL particle number and particle size can be determined using nuclear magnetic resonance (NMR) spectrometry. Remnants lipoproteins and LDL-phospholipase A2 can be determined from EDTA plasma or serum and serum, respectively, using enzymatic immunoseparation techniques. Oxidized LDL, intercellular adhesion molecule-1 and interleukin-2 levels can be determined from serum using standard enzyme immunoassay techniques. These techniques are described in detail in standard textbooks, for example Tietz Fundamentals of Clinical Chemistry, 6th Ed. […]
The effect of >96% E-EPA on lipid and inflammatory parameters was evaluated in patients with fasting triglyceride levels ≧150 mg/dl and <499 mg/dl on concomitant statin therapy. […]

[2] = test system: hsCRP; experiment: ANCHOR study, hsCRP (also by statin type and statin efficacy regimen)
Text: (§1) Parameters (a)-(y) can be measured in accordance with any clinically acceptable methodology. For example, triglycerides, total cholesterol, HDL-C and fasting blood sugar can be sample from serum and analyzed using standard photometry techniques. VLDL-TG, LDL-C and VLDL-C can be calculated or determined using serum lipoprotein fractionation by preparative ultracentrifugation and subsequent quantitative analysis by refractometry or by analytic ultracentrifugal methodology. Apo A1, Apo B and hsCRP can be determined from serum using standard nephelometry techniques. Lipoprotein (a) can be determined from serum using standard turbidimetric immunoassay techniques. LDL particle number and particle size can be determined using nuclear magnetic resonance (NMR) spectrometry. Remnants lipoproteins and LDL-phospholipase A2 can be determined from EDTA plasma or serum and serum, respectively, using enzymatic immunoseparation techniques. Oxidized LDL, intercellular adhesion molecule-1 and interleukin-2 levels can be determined from serum using standard enzyme immunoassay techniques. These techniques are described in detail in standard textbooks, for example Tietz Fundamentals of Clinical Chemistry, 6th Ed. (Burtis, Ashwood and Borter Eds.), WB Saunders Company.
A multi-center, placebo-controlled, randomized, double-blind, 12-week study was performed to evaluate the efficacy and safety of >96% E-EPA in patients with fasting triglyceride levels ≧200 mg/dl and <500 mg/dl despite statin therapy (the mean of two qualifying entry values needed to be ≧185 mg/dl and at least one of the values needs to be ≧200 mg/dl). The primary objective of the study was to determine the efficacy of >96% E-EPA 2 g daily and 4 g daily, compared to placebo, in lowering fasting TG levels in patients with high risk for cardiovascular disease and with fasting TG levels ≧200 mg/dL and <500 mg/dL, despite treatment to LDL-C goal on statin therapy.
The population for this study was men and women >18 years of age with a body mass index ≦45 kg/m^2 with fasting TG levels greater than or equal to 200 mg/dl and less than 500 mg/dl and on a stable does of statin therapy (with or without ezetimibe). The statin must have been atorvostatin, rosuvastatin or simvastatin. The dose of statin must have been stable for ≧4 weeks prior to the LDL-C/TG baseline qualifying measurement for randomization. The statin dose was optimal such that the patients are at their LDL-C goal at the LDL-C/TG baseline qualifying measurements. The same statin at the same dose was continued until the study ended.
Approximately 648 patients were randomized at approximately 80 centers in the U.S. The study was a 18- to 20-week, Phase 3, multi-center study consisting of 2 study periods: (1) A 6- to 8-week screening period that included a diet and lifestyle stabilization, a non-statin lipid-altering treatment washout, and an LDL-C and TG qualifying period and (2) A 12-week, double-blind, randomized, placebo-controlled treatment period.
After confirmation of qualifying fasting LDL-C and TG values, eligible patients entered a 12-week, randomized, double-blind treatment period. At Visit 4 (Week 0), patients were randomly assigned to 1 of the following treatment groups: • >96% E-EPA 2 g daily, • >96% E-EPA 4 g daily, or • Placebo.
Approximately 216 patients per treatment group were randomized in this study. Stratification was by type of statin (atorvastatin, rosuvastatin or simvastatin), the presence of diabetes, and gender. […]

[3] = test system: Non-HDL-C; experiment: Non-HDL-C in patients with diabetes mellitus-2 (Example 2); details: 4 g/day, 12 weeks, on statin
Method: (§2) The effect of >96% E-EPA on lipid and inflammatory parameters was evaluated in patients with fasting triglyceride levels ≧150 mg/dl and <499 mg/dl on concomitant statin therapy. Patients with diabetes mellitus-2 were randomized and treated with either 2 g/day >96% E-EPA, 4 g/day >96%, or placebo for twelve weeks. At the end of the treatment period, several diabetes efficacy endpoints were evaluated including, TG, LDL-C, non-HDL-C, VLDL-C, Lp-PLA2, Apo B, TC, HDL-C, VLDL-TG, hs-CRP, oxLDL, and RLP-C.

[4] = test system: hsCRP; experiment: hsCRP in patients with diabetes mellitus-2 (Example 2); details: 4 g/day, 12 weeks, on statin
Text: as §1, §2

[5] = well-controlled diabetes (HbA1c < median of 6.8%)
[6] = less-controlled diabetes (HbA1c ≧ median of 6.8%)

## CC/C=C\C/C=C\C/C=C\C/C=C\C/C=C\CCCC(=O)OCC [AMR101, all-cis eicosa-5,8,11,14,17-pentaenoic acid ethyl ester]
[1]; total diabetes
  Median placebo-adjusted percent change in TG from baseline to study end: −23.2%
[1]; [5]
  Median placebo-adjusted percent change in TG from baseline to study end: −21.0%
[2]; ANCHOR ITT, 2 g/day, week 12
  hsCRP end-of-treatment value, median: 2.5 mg/L
[2]; ANCHOR ITT, 4 g/day, week 12
  hsCRP change from baseline (median): −2.4%
  hsCRP end-of-treatment value, median: 2.0 mg/L
[2]; ANCHOR, atorvastatin, AMR101 2 g/day vs placebo, P 0.6563
  hsCRP median placebo-adjusted % change from baseline: −9.3%
[2]; ANCHOR, atorvastatin, AMR101 2 g/day, week 12
  hsCRP change from baseline, median %: 20.1%
[2]; ANCHOR, atorvastatin, AMR101 2 g/day, week 12, baseline 1.7
  hsCRP end-of-treatment value, median: 2.3 mg/L
[2]; ANCHOR, atorvastatin, AMR101 4 g/day vs placebo, P 0.0475
  hsCRP median placebo-adjusted % change from baseline: −36.7%
[2]; ANCHOR, atorvastatin, AMR101 4 g/day, week 12
  hsCRP change from baseline, median %: −11.7%
[2]; ANCHOR, atorvastatin, AMR101 4 g/day, week 12, baseline 2.1
  hsCRP end-of-treatment value, median: 1.5 mg/L
[2]; ANCHOR, higher-efficacy statin regimen, AMR101 2 g/day vs placebo, P 0.5227
  hsCRP median placebo-adjusted % change from baseline: −8.3%
[2]; ANCHOR, higher-efficacy statin regimen, AMR101 2 g/day, week 12
  hsCRP change from baseline, median %: 16.7%
[2]; ANCHOR, higher-efficacy statin regimen, AMR101 2 g/day, week 12, baseline 1.7
  hsCRP end-of-treatment value, median: 2.2 mg/L
[2]; ANCHOR, higher-efficacy statin regimen, AMR101 4 g/day vs placebo, P 0.0210
  hsCRP median placebo-adjusted % change from baseline: −28.6%
[2]; ANCHOR, higher-efficacy statin regimen, AMR101 4 g/day, week 12
  hsCRP change from baseline, median %: 0.0%
[2]; ANCHOR, higher-efficacy statin regimen, AMR101 4 g/day, week 12, baseline 2.5
  hsCRP end-of-treatment value, median: 2.0 mg/L
[2]; ANCHOR, lower-efficacy statin regimen, AMR101 2 g/day, week 12
  hsCRP change from baseline, median %: 13.3%
[2]; ANCHOR, lower-efficacy statin regimen, AMR101 2 g/day, week 12, baseline 1.5
  hsCRP end-of-treatment value, median: 1.7 mg/L
[2]; ANCHOR, lower-efficacy statin regimen, AMR101 4 g/day vs placebo, P 0.8843
  hsCRP median placebo-adjusted % change from baseline: 4.0%
[2]; ANCHOR, lower-efficacy statin regimen, AMR101 4 g/day, week 12
  hsCRP change from baseline, median %: 11.9%
[2]; ANCHOR, lower-efficacy statin regimen, AMR101 4 g/day, week 12, baseline 2.1
  hsCRP end-of-treatment value, median: 2.4 mg/L
[2]; ANCHOR, medium-efficacy statin regimen, AMR101 2 g/day vs placebo, P 0.2839
  hsCRP median placebo-adjusted % change from baseline: −8.3%
[2]; ANCHOR, medium-efficacy statin regimen, AMR101 2 g/day, week 12
  hsCRP change from baseline, median %: 8.7%
[2]; ANCHOR, medium-efficacy statin regimen, AMR101 2 g/day, week 12, baseline 2.3
  hsCRP end-of-treatment value, median: 2.6 mg/L
[2]; ANCHOR, medium-efficacy statin regimen, AMR101 4 g/day vs placebo, P 0.0034
  hsCRP median placebo-adjusted % change from baseline: −22.8%
[2]; ANCHOR, medium-efficacy statin regimen, AMR101 4 g/day, week 12
  hsCRP change from baseline, median %: −7.7%
[2]; ANCHOR, medium-efficacy statin regimen, AMR101 4 g/day, week 12, baseline 2.2
  hsCRP end-of-treatment value, median: 1.8 mg/L
[2]; ANCHOR, rosuvastatin, AMR101 2 g/day vs placebo, P 0.3922
  hsCRP median placebo-adjusted % change from baseline: −11.0%
[2]; ANCHOR, rosuvastatin, AMR101 2 g/day, week 12
  hsCRP change from baseline, median %: 0.0%
[2]; ANCHOR, rosuvastatin, AMR101 2 g/day, week 12, baseline 1.6
  hsCRP end-of-treatment value, median: 2.0 mg/L
[2]; ANCHOR, rosuvastatin, AMR101 4 g/day vs placebo, P 0.0217
  hsCRP median placebo-adjusted % change from baseline: −31.4%
[2]; ANCHOR, rosuvastatin, AMR101 4 g/day, week 12
  hsCRP change from baseline, median %: −1.2%
[2]; ANCHOR, rosuvastatin, AMR101 4 g/day, week 12, baseline 2.6
  hsCRP end-of-treatment value, median: 1.9 mg/L
[2]; ANCHOR, simvastatin, AMR101 2 g/day vs placebo, P 0.6562
  hsCRP median placebo-adjusted % change from baseline: −3.8%
[2]; ANCHOR, simvastatin, AMR101 2 g/day, week 12
  hsCRP change from baseline, median %: 11.0%
[2]; ANCHOR, simvastatin, AMR101 2 g/day, week 12, baseline 2.2
  hsCRP end-of-treatment value, median: 2.7 mg/L
[2]; ANCHOR, simvastatin, AMR101 4 g/day vs placebo, P 0.0755
  hsCRP median placebo-adjusted % change from baseline: −13.6%
[2]; ANCHOR, simvastatin, AMR101 4 g/day, week 12
  hsCRP change from baseline, median %: 0.0%
[2]; ANCHOR, simvastatin, AMR101 4 g/day, week 12, baseline 2.2
  hsCRP end-of-treatment value, median: 2.2 mg/L
[2]; ANCHOR, 2 g/day, concomitant atorvastatin
  hsCRP median placebo-adjusted change from baseline: statistically insignificant
[2]; ANCHOR, 2 g/day, concomitant rosuvastatin
  hsCRP median placebo-adjusted change from baseline: statistically insignificant
[2]; ANCHOR, 2 g/day, concomitant simvastatin
  hsCRP median placebo-adjusted change from baseline: statistically insignificant
[2]; ANCHOR, 2 g/day, high-efficacy statin therapy
  hsCRP median placebo-adjusted change from baseline: statistically insignificant
[2]; ANCHOR, 2 g/day, low-efficacy statin therapy
  hsCRP median placebo-adjusted change from baseline: statistically insignificant
[2]; ANCHOR, 2 g/day, medium-efficacy statin therapy
  hsCRP median placebo-adjusted change from baseline: statistically insignificant
[2]; ANCHOR, 4 g/day, concomitant atorvastatin
  hsCRP median placebo-adjusted change from baseline: −36.7%
[2]; ANCHOR, 4 g/day, concomitant rosuvastatin
  hsCRP median placebo-adjusted change from baseline: −31.4%
[2]; ANCHOR, 4 g/day, concomitant simvastatin
  hsCRP median placebo-adjusted change from baseline: statistically insignificant
[2]; ANCHOR, 4 g/day, high-efficacy statin therapy
  hsCRP median placebo-adjusted change from baseline: −28.6%
[2]; ANCHOR, 4 g/day, low-efficacy statin therapy (e.g., simvastatin 5-10 mg/day)
  hsCRP median placebo-adjusted change from baseline: statistically insignificant
[3]; [6]
  Median placebo-adjusted percent change in Non-HDL-C from baseline to study end: −18.0%
[3]; total diabetes
  Median placebo-adjusted percent change in Non-HDL-C from baseline to study end: −14.4%
[3]; [5]
  Median placebo-adjusted percent change in Non-HDL-C from baseline to study end: −11.3%
[4]; [6]
  Median placebo-adjusted percent change in hsCRP from baseline to study end: −34.6%
[4]; total diabetes
  Median placebo-adjusted percent change in hsCRP from baseline to study end: −21.5%
[4]; [5]
  Median placebo-adjusted percent change in hsCRP from baseline to study end: −4.0%
